Source: patent publication US20090054413A1, “Novel 5,6-Dihydropyrazolo[3,4-E] [L,4]Diazepin-4 (IH) -One Derivatives for the Treatment of Asthma and Chronic Obstructive Pulmonary Disease” (AstraZeneca AB, priority 2005, published 2009)

Target: recombinant Human Phosphodiesterase B2 (PDE4B2) (Homo sapiens, UniProt Q07343)
Assay: Human Phosphodiesterase B2 Alpha Screen Assay
Format: biochemical
Conditions: recombinant human PDE4B2, cAMP substrate, 60 min at room temperature
Procedure: Human Phosphodiesterase B2 Alpha Screen Assay
The assay uses recombinant Human Phosphodiesterase B2 (PDE4B2) produced in house (PrAZL0133), stored at −20° C. The substrate uses cAMP, part of the Alpha Screen cAMP kit (Perkin Elmer, Cat #6760625M), stored at 4° C. The Alpha Screen kit also includes biotinylated cAMP, acceptor and donor beads.
The assay additions were as follows: Test compounds and controls were added to white 384-well flat-bottom plates (Greiner, Cat #781075), 0.2 μl in 100% DMSO, followed by 10 μl PDE4B2 in reaction buffer. The reaction buffer constitution was: 50 mM Tris (pH 7.5), 8.3 mM MgCl2, 1.7 mM EGTA and 0.01% (w/v) Brij®35. The enzyme and the compounds were incubated at room temperature for 15 minutes. Then 10 μl cAMP in reaction buffer was added. The assay was stopped after 60 minutes incubation at room temperature by adding 10 μl acceptor beads in detection buffer with 40 mM EDTA. The detection buffer constitution was: 5 mM Tris (pH 7.5), 0.1% (w/v) BSA and 0.1% (v/v) Tween 20. This addition followed by an addition of 10 μl donor beads in detection buffer, with biotinylated cAMP. The plates were then incubated, dark at room temperature, for 5 hours followed by measurement on a Fusion™-α analyser. IC50 values (presented in Table 1) were determined using Xlfit curve fitting using model 205.

Sequence of recombinant Human Phosphodiesterase B2 (PDE4B2) (Q07343 1-564 isoform Q07343-2): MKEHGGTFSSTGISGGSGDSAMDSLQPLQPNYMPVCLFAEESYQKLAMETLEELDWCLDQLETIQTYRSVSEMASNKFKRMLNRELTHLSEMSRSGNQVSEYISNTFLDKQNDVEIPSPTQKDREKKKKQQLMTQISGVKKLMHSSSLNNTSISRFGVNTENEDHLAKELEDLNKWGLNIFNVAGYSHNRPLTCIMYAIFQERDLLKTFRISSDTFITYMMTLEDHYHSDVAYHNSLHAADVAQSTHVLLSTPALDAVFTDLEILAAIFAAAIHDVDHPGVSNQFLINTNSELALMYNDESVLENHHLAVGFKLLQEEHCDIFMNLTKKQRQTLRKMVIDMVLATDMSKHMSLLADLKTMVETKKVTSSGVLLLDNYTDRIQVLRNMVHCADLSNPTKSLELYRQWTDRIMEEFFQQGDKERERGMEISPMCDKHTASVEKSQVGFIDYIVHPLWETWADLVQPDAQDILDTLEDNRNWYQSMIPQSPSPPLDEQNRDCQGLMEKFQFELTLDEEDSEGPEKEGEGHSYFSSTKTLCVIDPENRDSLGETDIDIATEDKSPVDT

`CCc1nn(C2CCCC2)c2c1C(=O)NCC(c1ccccc1)=N2` [Example 1, 1-Cyclopentyl-3-ethyl-7-phenyl-5,6-dihydropyrazolo[3,4-e][1,4]diazepin-4(1H)-one] was tested. Which IC50 did it give?
The IC50 was 0.33 nM.

Which IC50 does the source give for `CCc1nn(C2CCCC2)c2c1C(=O)NCC(c1ccc(OC)cc1)=N2` [Example 2, 1-cyclopentyl-3-ethyl-7-(4-methoxyphenyl)-5,6-dihydropyrazolo[3,4-e][1,4]diazepin-4(1H)-one] here?
Its IC50 is 0.98 nM.

How did the IC50 turn out when `CCc1nn(-c2ccc(F)cc2)c2c1C(=O)NCC(c1ccccc1)=N2` [Example 3, 3-ethyl-1-(4-fluorophenyl)-7-phenyl-5,6-dihydropyrazolo[3,4-e][1,4]diazepin-4(1H)-one] was run?
Its IC50 is 6.1 nM.

For `CCc1nn(-c2cccc([N+](=O)[O-])c2)c2c1C(=O)NCC(c1ccccc1)=N2` [Example 4, 3-ethyl-1-(3-nitrophenyl)-7-phenyl-5,6-dihydropyrazolo[3,4-e][1,4]diazepin-4(1H)-one], which IC50 is on record?
The IC50 was 4.8 nM.

How did the IC50 turn out when `CCc1nn(-c2ccc(S(C)(=O)=O)cc2)c2c1C(=O)NCC(c1ccccc1)=N2` [Example 5, 3-ethyl-1-[4-(methylsulfonyl)phenyl]-7-phenyl-5,6-dihydropyrazolo[3,4-e][1,4]diazepin-4(1H)-one] was run?
The IC50 was 43 nM.

With `CCc1nn(-c2ccccc2)c2c1C(=O)NCC(c1ccccc1)=N2` [Example 6, 3-Ethyl-1,7-diphenyl-5,6-dihydropyrazolo[3,4-e][1,4]diazepin-4(1H)-one] as the compound, how does the IC50 read?
Its IC50 is 11 nM.

`CCc1nn(C2CCCC2)c2c1C(=O)NCC(c1ccc(OC)c(OC)c1)=N2` [Example 7, 1-Cyclopentyl-7-(3,4-dimethoxyphenyl)-3-ethyl-5,6-dihydropyrazolo[3,4-e][1,4]diazepin-4(1H)-one] was tested. Which IC50 did it give?
The IC50 was 1.47 nM.

With `CCc1nn(C2CCCC2)c2c1C(=O)NCC(c1ccc(Br)cc1)=N2` [Example 8, 7-(4-Bromophenyl)-1-cyclopentyl-3-ethyl-5,6-dihydropyrazolo[3,4-e][1,4]diazepin-4(1H)-one] as the compound, how does the IC50 read?
The IC50 was 0.84 nM.

How did the IC50 turn out when `CCc1nn(C2CCCC2)c2c1C(=O)NCC(c1ccc(C)cc1)=N2` [Example 9, 1-Cyclopentyl-3-ethyl-7-(4-methylphenyl)-5,6-dihydropyrazolo[3,4-e][1,4]diazepin-4(1H)-one] was run?
Its IC50 is 0.61 nM.

Which IC50 does the source give for `CCc1nn(C2CCCC2)c2c1C(=O)NCC(c1ccccc1OC)=N2` [Example 10, 1-Cyclopentyl-3-ethyl-7-(2-methoxyphenyl)-5,6-dihydropyrazolo[3,4-e][1,4]diazepin-4(1H)-one] here?
Its IC50 is 0.91 nM.

How did the IC50 turn out when `CCc1nn(C2CCCC2)c2c1C(=O)NCC(c1ccc(O)c(C(=O)OC)c1)=N2` [Example 11, Methyl 5-(1-cyclopentyl-3-ethyl-4-oxo-1,4,5,6-tetrahydropyrazolo[3,4-e][1,4]diazepin-7-yl)-2-hydroxybenzoate] was run?
Its IC50 is 0.59 nM.

Which IC50 does the source give for `CCc1nn(C2CCCC2)c2c1C(=O)NCC(c1ccc(Cl)cc1)=N2` [Example 12, 7-(4-Chlorophenyl)-1-cyclopentyl-3-ethyl-5,6-dihydropyrazolo[3,4-e][1,4]diazepin-4(1H)-one] here?
Its IC50 is 0.57 nM.

How did the IC50 turn out when `CCc1nn(C2CCCC2)c2c1C(=O)NCC(c1ccc(F)c(F)c1)=N2` [Example 13, 7-(3,4-Difluorophenyl)-1-cyclopentyl-3-ethyl-5,6-dihydropyrazolo[3,4-e][1,4]diazepin-4(1H)-one] was run?
The IC50 was 0.73 nM.

Which IC50 does the source give for `CCc1nn(C2CCCC2)c2c1C(=O)NCC(c1cc(OC)ccc1OC)=N2` [Example 14, 1-Cyclopentyl-7-(2,5-dimethoxyphenyl)-3-ethyl-5,6-dihydropyrazolo[3,4-e][1,4]diazepin-4(1H)-one] here?
The IC50 was 0.5 nM.

Which IC50 does the source give for `CCc1nn(C2CCCC2)c2c1C(=O)NCC(c1ccc(OCc3ccccc3)cc1)=N2` [Example 15, 7-[4-(Benzyloxy)phenyl]-1-cyclopentyl-3-ethyl-5,6-dihydropyrazolo[3,4-e][1,4]diazepin-4(1H)-one] here?
The IC50 was 0.9 nM.

How did the IC50 turn out when `CCc1nn(C2CCCC2)c2c1C(=O)NCC(c1ccc3c(c1)OCCCO3)=N2` [Example 16, 1-Cyclopentyl-7-(3,4-dihydro-2H-1,5-benzodioxepin-7-yl)-3-ethyl-5,6-dihydropyrazolo[3,4-e][1,4]diazepin-4(1H)-one] was run?
Its IC50 is 0.43 nM.

With `CCc1nn(C2CCCC2)c2c1C(=O)NCC(c1ccco1)=N2` [Example 17, 1-Cyclopentyl-3-ethyl-7-(2-furyl)-5,6-dihydropyrazolo[3,4-e][1,4]diazepin-4(1H)-one] as the compound, how does the IC50 read?
Its IC50 is 2.16 nM.

Which IC50 does the source give for `CCc1nn(C2CCCC2)c2c1C(=O)NCC(C(C)(C)C)=N2` [Example 18, 7-tert-Butyl-1-cyclopentyl-3-ethyl-5,6-dihydropyrazolo[3,4-e][1,4]diazepin-4(1H)-one] here?
The IC50 was 0.53 nM.

For `CCc1nn(C2CCCC2)c2c1C(=O)NCC(c1cccc(OC)c1)=N2` [Example 19, 1-Cyclopentyl-3-ethyl-7-(3-methoxyphenyl)-5,6-dihydropyrazolo[3,4-e][1,4]diazepin-4(1H)-one], which IC50 is on record?
Its IC50 is 0.55 nM.

How did the IC50 turn out when `CCc1nn(C2CCCC2)c2c1C(=O)NCC(CCC(=O)OC)=N2` [Example 20, Methyl 3-(1-cyclopentyl-3-ethyl-4-oxo-1,4,5,6-tetrahydropyrazolo[3,4-e][1,4]diazepin-7-yl)propanoate] was run?
The IC50 was 28.7 nM.

Which IC50 does the source give for `CCc1nn(C2CCCC2)c2c1C(=O)NCC(c1ccc(F)cc1)=N2` [Example 21, 1-Cyclopentyl-3-ethyl-7-(4-fluorophenyl)-5,6-dihydropyrazolo[3,4-e][1,4]diazepin-4(1H)-one] here?
Its IC50 is 1.05 nM.

For `CCc1nn(C2CCCC2)c2c1C(=O)NCC(c1ccc(OC(F)(F)F)cc1)=N2` [Example 22, 1-Cyclopentyl-3-ethyl-7-[4-(trifluoromethoxy)phenyl]-5,6-dihydropyrazolo[3,4-e][1,4]diazepin-4(1H)-one], which IC50 is on record?
The IC50 was 4.16 nM.

For `CCc1nn(C2CCCC2)c2c1C(=O)NCC(c1ccc(C#N)cc1)=N2` [Example 23, 4-(1-Cyclopentyl-3-ethyl-4-oxo-1,4,5,6-tetrahydropyrazolo[3,4-e][1,4]diazepin-7-yl)benzonitrile], which IC50 is on record?
Its IC50 is 1.21 nM.

With `CCc1nn(C2CCCC2)c2c1C(=O)NCC(c1ccc(S(C)(=O)=O)cc1)=N2` [Example 24, 1-Cyclopentyl-3-ethyl-7-[4-(methylsulfonyl)phenyl]-5,6-dihydropyrazolo[3,4-e][1,4]diazepin-4(1H)-one] as the compound, how does the IC50 read?
Its IC50 is 3.92 nM.

How did the IC50 turn out when `CCc1nn(C2CCCC2)c2c1C(=O)NC(c1ccccc1)C(C)=N2` (stereo not drawn) [Example 25, 1-Cyclopentyl-3-ethyl-7-methyl-6-phenyl-5,6-dihydropyrazolo[3,4-e][1,4]diazepin-4(1H)-one] was run?
The IC50 was 385 nM.

For `CCc1nn(C2CCCC2)c2c1C(=O)N(C)CC(c1ccccc1)=N2` [Example 26, 1-Cyclopentyl-3-ethyl-5-methyl-7-phenyl-5,6-dihydropyrazolo[3,4-e][1,4]diazepin-4(1H)-one], which IC50 is on record?
Its IC50 is 103 nM.

`CCc1nn(C2CCCC2)c2c1C(=O)NCC(c1ccc(O)c(C(=O)O)c1)=N2` [Example 27, 5-(1-Cyclopentyl-3-ethyl-4-oxo-1,4,5,6-tetrahydropyrazolo[3,4-e][1,4]diazepin-7-yl)-2-hydroxybenzoic acid] was tested. Which IC50 did it give?
The IC50 was 0.52 nM.

For `CCc1nn(C2CCCC2)c2c1C(=O)NCC(CCC(=O)O)=N2` [Example 28, 3-(1-Cyclopentyl-3-ethyl-4-oxo-1,4,5,6-tetrahydropyrazolo[3,4-e][1,4]diazepin-7-yl)propanoic acid], which IC50 is on record?
The IC50 was 65.3 nM.

With `CCc1nn(C2CCCC2)c2c1C(=O)NCC(CCC(=O)NCCN(C)C)=N2` [Example 29, 3-(1-Cyclopentyl-3-ethyl-4-oxo-1,4,5,6-tetrahydropyrazolo[3,4-e][1,4]diazepin-7-yl)-N-[2-(dimethylamino)ethyl]propanamide] as the compound, how does the IC50 read?
The IC50 was 4480 nM.

With `CCc1nn(C2CCCC2)c2c1C(=O)NCC(c1ccccc1)N2` (stereo not drawn) [Example 30, 1-Cyclopentyl-3-ethyl-7-phenyl-5,6,7,8-tetrahydropyrazolo[3,4-e][1,4]diazepin-4(1H)-one] as the compound, how does the IC50 read?
The IC50 was 158 nM.

For `CSc1nn(-c2ccccc2)c2c1C(=O)NCC(c1ccccc1)=N2` [Example 31, 3-(Methylthio)-1,7-diphenyl-5,6-dihydropyrazolo[3,4-e][1,4]diazepin-4(1H)-one], which IC50 is on record?
Its IC50 is 426 nM.

`CCc1nn(C2CCS(=O)(=O)C2)c2c1C(=O)NCC(c1ccccc1)=N2` (stereo not drawn) [Example 32, 1-(1,1-Dioxidotetrahydrothien-3-yl)-3-ethyl-7-phenyl-5,6-dihydropyrazolo[3,4-e][1,4]diazepin-4(1H)-one] was tested. Which IC50 did it give?
The IC50 was 5.8 nM.

`CCc1nn(C2CCSCC2)c2c1C(=O)NCC(c1ccccc1)=N2` [Example 33, 3-Ethyl-7-phenyl-1-tetrahydro-2H-thiopyran-4-yl-5,6-dihydropyrazolo[3,4-e][1,4]diazepin-4(1H)-one] was tested. Which IC50 did it give?
Its IC50 is 3.9 nM.

For `CCc1nn(C2CC[S+]([O-])CC2)c2c1C(=O)NCC(c1ccccc1)=N2` (stereo not drawn) [Example 34, 3-Ethyl-1-(1-oxidotetrahydro-2H-thiopyran-4-yl)-7-phenyl-5,6-dihydropyrazolo[3,4-e][1,4]diazepin-4(1H)-one], which IC50 is on record?
The IC50 was 99.1 nM.

How did the IC50 turn out when `CCc1nn(C2CCS(=O)(=O)CC2)c2c1C(=O)NCC(c1ccccc1)=N2` [Example 35, 1-(1,1-Dioxidotetrahydro-2H-thiopyran-4-yl)-3-ethyl-7-phenyl-5,6-dihydropyrazolo[3,4-e][1,4]diazepin-4(1H)-one] was run?
Its IC50 is 40.3 nM.

Which IC50 does the source give for `Cc1nn(C2CCCC2)c2c1C(=O)NCC(c1ccccc1)=N2` [Example 36, 1-Cyclopentyl-3-methyl-7-phenyl-5,6-dihydropyrazolo[3,4-e][1,4]diazepin-4(1H)-one] here?
Its IC50 is 9.49 nM.
